# Publication PMC7321114, “Anion Inhibition Studies of the Beta-Carbonic Anhydrase from Escherichia coli” (Molecules, 2020)
# Target: T1, CynT2 (Escherichia coli, UniProt P61517)
# T1 construct: gene can; full-length synthetic gene, 220 residues, no signal peptide, N-terminal His6 fusion (pET100D-Topo), expressed in E. coli BL21(DE3) codon plus, about 29 kDa subunit, tag removal not mentioned
# Test: stopped-flow CO2 hydration assay
# Type: biochemical
# Conditions: CO2 substrate 1.7-17 mM, pH 8.3, 20 mM Tris, 20 mM NaClO4, 15 min preincubation; read-out: KI (mM) ^1 / CynT2
# T1 sequence (P61517 whole entry, the tested form may be a part): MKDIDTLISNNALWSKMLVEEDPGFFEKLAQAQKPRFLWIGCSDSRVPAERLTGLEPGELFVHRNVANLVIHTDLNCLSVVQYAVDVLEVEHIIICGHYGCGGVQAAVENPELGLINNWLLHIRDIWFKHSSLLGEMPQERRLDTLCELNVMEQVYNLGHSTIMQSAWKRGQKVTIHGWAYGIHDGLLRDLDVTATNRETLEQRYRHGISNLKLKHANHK
row,Compound,Ki [mM]
1,OB1OB2OB(O)OB(O1)O2 [B4O7^2−],0.25
2,F[P-](F)(F)(F)(F)F [PF6^−],> 10

# Same assay, conditions: read-out: KI (mM) ^1 / CynT2
row,Compound,Ki [mM]
1,N#CS [SCN^−],5.7
2,O=S(=O)(O)NS(=O)(=O)O [NH(SO3)2^2−],1.5
3,O=[N+]([O-])O [NO3^−],2.4
4,O=S(=O)(O)F [FSO3^−],0.83
5,[O]=[V]([OH])([OH])[O][V](=[O])([OH])[OH] [V2O7^2−],> 10
6,O=S(O)O [HSO3^−],3.7
7,OB(O)c1ccccc1 [PhB(OH)2],0.0028
8,[O]=[Ru](=[O])(=[O])[OH] [RuO4^−],9.5
9,O=S(=O)(O)O [SO4^2−],1.7
10,O=[Se](=O)(O)O [SeO4^2−],3.1
11,N#CO [CNO^−],0.58
12,S [HS^−],2.7
13,S=C(S)S [CS3^2−],3.1
14,N#C[SeH] [SeCN^−],3.1
15,O=S(=O)(O)C(F)(F)F [CF3SO3^−],> 10
16,NS(=O)(=O)O [NH2SO3H],0.0025
17,[O-][Cl+3]([O-])([O-])O [ClO4^−],> 100
18,O=[Te](=O)(O)O [TeO4^2−],0.51
19,O=S(=O)(O)OOS(=O)(=O)O [S2O8^2−],6.4
20,O=P(O)(O)OP(=O)(O)O [P2O7^2−],> 10
21,NS(N)(=O)=O [NH2SO2NH2],0.011
22,Br [Br^−],3.8
23,[O]=[Re](=[O])(=[O])[OH] [ReO4^−],> 10
24,Cl [Cl^−],6.7
25,F [F^−],9.4
26,I [I^−],> 10
27,O=NO [NO2^−],4.9
28,CCN(CC)C(=S)S [EtNCS2^−],0.084
